Measured values reported in ChEMBL document CHEMBL5036336, “Structure-Guided Optimization Provides a Series of TTK Protein Inhibitors with Potent Antitumor Activity” (J Med Chem, 2021).
Values after ≈ are worked out from the molar mass of the structure shown. Active and inactive are the calls of the source. The calls are words filed in the database; no cut-off is given here.

Experiments:
[1] = molecular target: T1, Dual specificity protein kinase TTK (Homo sapiens, UniProt P33981); assay: Displacement of kinase tracer 236 from TTK (unknown origin) by LanthaScreen Eu kinase binding assay
T1 sequence (P33981 whole entry): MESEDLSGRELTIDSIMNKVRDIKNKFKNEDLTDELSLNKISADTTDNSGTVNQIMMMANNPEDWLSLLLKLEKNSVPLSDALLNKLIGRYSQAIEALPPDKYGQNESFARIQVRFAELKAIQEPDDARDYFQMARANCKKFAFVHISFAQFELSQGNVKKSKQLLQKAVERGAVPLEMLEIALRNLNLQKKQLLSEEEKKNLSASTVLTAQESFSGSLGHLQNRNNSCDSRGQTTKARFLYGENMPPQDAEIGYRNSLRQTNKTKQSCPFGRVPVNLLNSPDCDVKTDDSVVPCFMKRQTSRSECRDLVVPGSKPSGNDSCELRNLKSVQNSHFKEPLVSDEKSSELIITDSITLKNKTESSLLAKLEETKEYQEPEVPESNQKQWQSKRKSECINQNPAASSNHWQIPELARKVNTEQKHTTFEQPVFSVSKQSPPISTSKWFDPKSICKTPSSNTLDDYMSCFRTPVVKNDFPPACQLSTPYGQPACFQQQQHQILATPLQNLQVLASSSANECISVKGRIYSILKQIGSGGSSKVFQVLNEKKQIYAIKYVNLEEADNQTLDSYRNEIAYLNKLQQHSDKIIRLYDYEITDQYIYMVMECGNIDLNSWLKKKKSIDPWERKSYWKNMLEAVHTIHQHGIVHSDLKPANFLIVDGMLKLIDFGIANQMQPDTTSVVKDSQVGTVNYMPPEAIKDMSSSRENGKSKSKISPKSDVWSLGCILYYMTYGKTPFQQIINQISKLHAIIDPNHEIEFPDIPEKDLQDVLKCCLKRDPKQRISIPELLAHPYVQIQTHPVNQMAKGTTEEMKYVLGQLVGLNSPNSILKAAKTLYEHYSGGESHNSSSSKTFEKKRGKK

[2] = molecular target: T2, Leucine-rich repeat serine/threonine-protein kinase 2 (Homo sapiens, UniProt Q5S007); assay: Inhibition of LRRK2 (unknown origin) at 3 uM by ADAPTA assay relative to control
[3] = Kinetic solubility of compound in PBS at pH 7.4 at 200 uM incubated for 24 hrs by UPLC/MS analysis; format: physicochemical; conditions: read-out: Kinetic_solubility
[4] = Clearance in rat at 2 mg/kg, iv; format: ADME, organism-based; conditions: in vivo
Cytochrome P450 3A4 = Cytochrome P450 3A4 (Homo sapiens, UniProt P08684); assay: Inhibition of CYP3A4 in human liver microsomes using […] as substrate incubated for 5 mins in presence of NADPH by LC-MS/MS analysis; format: ADME
[5] = molecular target: Serine/threonine-protein kinase Chk2 (Homo sapiens, UniProt O96017); assay: Inhibition of CHK2 (unknown origin) by Z-lyte assay
[6] = molecular target: T2, Leucine-rich repeat serine/threonine-protein kinase 2; assay: Inhibition of LRRK2 (unknown origin) by ADAPTA assay
[7] = molecular target: Leucine-rich repeat serine/threonine-protein kinase 2 (Homo sapiens, UniProt Q5S007, G2019S); assay: Inhibition of LRRK2 G2019S mutant (unknown origin) by ADAPTA assay
[8] = molecular target: Mitogen-activated protein kinase 8 (Homo sapiens, UniProt P45983); assay: Inhibition of JNK1 (unknown origin) by Z-lyte assay
[9] = molecular target: T3, Mitogen-activated protein kinase 9 (Homo sapiens, UniProt P45984); assay: Inhibition of JNK2 (unknown origin) by Z-lyte assay
[10] = molecular target: T4, MAP kinase-activated protein kinase 3 (Homo sapiens, UniProt Q16644); assay: Inhibition of MAPKAPK3 (unknown origin) by Z-lyte assay
[11] = molecular target: T5, Proto-oncogene tyrosine-protein kinase Src (Homo sapiens, UniProt P12931); assay: Inhibition of SRC N1 (unknown origin) by Z-lyte assay
[12] = molecular target: Testis-specific serine/threonine-protein kinase 2 (Homo sapiens, UniProt Q96PF2); assay: Inhibition of TSSK2 (unknown origin) by Z-lyte assay
Homo sapiens [13] = species on record: Homo sapiens; assay: Selectivity ratio of IC50 for inhibition of LRRK2 (unknown origin) to IC50 for inhibition of TTK (unknown origin)
Homo sapiens [14] = species on record: Homo sapiens; assay: Selectivity ratio of IC50 for inhibition of JNK2 (unknown origin) to IC50 for inhibition of TTK (unknown origin)
Homo sapiens [15] = species on record: Homo sapiens; assay: Selectivity ratio of IC50 for inhibition of MAPKAPK3 (unknown origin) to IC50 for inhibition of TTK (unknown origin)
Homo sapiens [16] = species on record: Homo sapiens; assay: Selectivity ratio of IC50 for inhibition of TSSK2 (unknown origin) to IC50 for inhibition of TTK (unknown origin)
Homo sapiens [17] = species on record: Homo sapiens; assay: Selectivity ratio of IC50 for inhibition of TSSK1 (unknown origin) to IC50 for inhibition of TTK (unknown origin)
[18] = Clearance in mouse at 2 mg/kg, iv; format: ADME, organism-based; conditions: in vivo
[19] = Volume of distribution at steady state in rat at 2 mg/kg, iv; format: ADME, organism-based; conditions: in vivo, read-out: Vdss
[20] = Mean residence time in rat at 2 mg/kg, iv; format: ADME, organism-based; conditions: in vivo
[21] = Mean residence time in mouse at 2 mg/kg, iv; format: ADME, organism-based; conditions: in vivo
[22] = AUC in rat at 2 mg/kg, iv; format: ADME, organism-based; design: dose 2 mg/kg; conditions: in vivo
[23] = Toxicity in CB17-SCID mouse xenografted with human CAL-51 cells assessed as body weight loss at 30 to 50 mg/kg, iv administered once per week for 16 days; format: organism-based; conditions: in vivo, 384 h, dose 30-50 mg/kg, time 16 day
CAL-51 = assay: Antitumor activity against human TNBC PDX-CAL-51 cells xenografted in CB17-SCID mouse assessed as tumor growth inhibition at 25 to 80 mg/kg, iv administered once per week for 3 weeks; format: functional, organism-based; conditions: dose 25-80 mg/kg
[24] = Toxicity in CB17-SCID mouse xenografted with human TNBC PDX-CAL-51 cells assessed as body weight loss at 80 mg/kg, iv administered once per week for 3 weeks; format: organism-based; conditions: in vivo, 504 h
[25] = tested on: Leucine-rich repeat serine/threonine-protein kinase 2 (Homo sapiens), Q5S007 [G2019S]; assay: Inhibition of LRRK2 G2019S mutant (unknown origin) at 3 uM by ADAPTA assay relative to control
[26] = molecular target: T3, Mitogen-activated protein kinase 9; assay: Inhibition of JNK2 (unknown origin) at 3 uM by Z-lyte assay relative to control
[27] = molecular target: T4, MAP kinase-activated protein kinase 3; assay: Inhibition of MAPKAPK3 (unknown origin) at 3 uM by Z-lyte assay relative to control
[28] = molecular target: T5, Proto-oncogene tyrosine-protein kinase Src; assay: Inhibition of SRC N1 (unknown origin) at 3 uM by Z-lyte assay relative to control
[29] = molecular target: Testis-specific serine/threonine-protein kinase 1 (Homo sapiens) (UniProt Q9BXA7); assay: Inhibition of TSSK1 (unknown origin) at 3 uM by Z-lyte assay relative to control
[30] = molecular target: Voltage-gated inwardly rectifying potassium channel KCNH2 (Homo sapiens, UniProt Q12809); assay: Inhibition of hERG
Homo sapiens [31] = species on record: Homo sapiens; assay: Inhibition of Bombesin receptor (unknown origin) at 10 uM relative to control

T5 sequence (P12931 2-536 limits assumed): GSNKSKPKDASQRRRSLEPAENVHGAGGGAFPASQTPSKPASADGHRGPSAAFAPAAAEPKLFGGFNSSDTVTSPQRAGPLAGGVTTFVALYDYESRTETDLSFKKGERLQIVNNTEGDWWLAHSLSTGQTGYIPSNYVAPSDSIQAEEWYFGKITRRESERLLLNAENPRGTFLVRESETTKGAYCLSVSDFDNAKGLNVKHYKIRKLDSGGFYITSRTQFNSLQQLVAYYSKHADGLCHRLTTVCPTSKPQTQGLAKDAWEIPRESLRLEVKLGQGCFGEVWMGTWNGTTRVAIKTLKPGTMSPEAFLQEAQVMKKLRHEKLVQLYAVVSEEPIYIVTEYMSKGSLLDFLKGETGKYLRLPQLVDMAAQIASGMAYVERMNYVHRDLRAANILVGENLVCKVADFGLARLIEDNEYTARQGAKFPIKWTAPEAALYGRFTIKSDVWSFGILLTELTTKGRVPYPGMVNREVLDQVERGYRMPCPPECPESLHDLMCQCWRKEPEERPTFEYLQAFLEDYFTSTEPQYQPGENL
T2 sequence (Q5S007 whole entry): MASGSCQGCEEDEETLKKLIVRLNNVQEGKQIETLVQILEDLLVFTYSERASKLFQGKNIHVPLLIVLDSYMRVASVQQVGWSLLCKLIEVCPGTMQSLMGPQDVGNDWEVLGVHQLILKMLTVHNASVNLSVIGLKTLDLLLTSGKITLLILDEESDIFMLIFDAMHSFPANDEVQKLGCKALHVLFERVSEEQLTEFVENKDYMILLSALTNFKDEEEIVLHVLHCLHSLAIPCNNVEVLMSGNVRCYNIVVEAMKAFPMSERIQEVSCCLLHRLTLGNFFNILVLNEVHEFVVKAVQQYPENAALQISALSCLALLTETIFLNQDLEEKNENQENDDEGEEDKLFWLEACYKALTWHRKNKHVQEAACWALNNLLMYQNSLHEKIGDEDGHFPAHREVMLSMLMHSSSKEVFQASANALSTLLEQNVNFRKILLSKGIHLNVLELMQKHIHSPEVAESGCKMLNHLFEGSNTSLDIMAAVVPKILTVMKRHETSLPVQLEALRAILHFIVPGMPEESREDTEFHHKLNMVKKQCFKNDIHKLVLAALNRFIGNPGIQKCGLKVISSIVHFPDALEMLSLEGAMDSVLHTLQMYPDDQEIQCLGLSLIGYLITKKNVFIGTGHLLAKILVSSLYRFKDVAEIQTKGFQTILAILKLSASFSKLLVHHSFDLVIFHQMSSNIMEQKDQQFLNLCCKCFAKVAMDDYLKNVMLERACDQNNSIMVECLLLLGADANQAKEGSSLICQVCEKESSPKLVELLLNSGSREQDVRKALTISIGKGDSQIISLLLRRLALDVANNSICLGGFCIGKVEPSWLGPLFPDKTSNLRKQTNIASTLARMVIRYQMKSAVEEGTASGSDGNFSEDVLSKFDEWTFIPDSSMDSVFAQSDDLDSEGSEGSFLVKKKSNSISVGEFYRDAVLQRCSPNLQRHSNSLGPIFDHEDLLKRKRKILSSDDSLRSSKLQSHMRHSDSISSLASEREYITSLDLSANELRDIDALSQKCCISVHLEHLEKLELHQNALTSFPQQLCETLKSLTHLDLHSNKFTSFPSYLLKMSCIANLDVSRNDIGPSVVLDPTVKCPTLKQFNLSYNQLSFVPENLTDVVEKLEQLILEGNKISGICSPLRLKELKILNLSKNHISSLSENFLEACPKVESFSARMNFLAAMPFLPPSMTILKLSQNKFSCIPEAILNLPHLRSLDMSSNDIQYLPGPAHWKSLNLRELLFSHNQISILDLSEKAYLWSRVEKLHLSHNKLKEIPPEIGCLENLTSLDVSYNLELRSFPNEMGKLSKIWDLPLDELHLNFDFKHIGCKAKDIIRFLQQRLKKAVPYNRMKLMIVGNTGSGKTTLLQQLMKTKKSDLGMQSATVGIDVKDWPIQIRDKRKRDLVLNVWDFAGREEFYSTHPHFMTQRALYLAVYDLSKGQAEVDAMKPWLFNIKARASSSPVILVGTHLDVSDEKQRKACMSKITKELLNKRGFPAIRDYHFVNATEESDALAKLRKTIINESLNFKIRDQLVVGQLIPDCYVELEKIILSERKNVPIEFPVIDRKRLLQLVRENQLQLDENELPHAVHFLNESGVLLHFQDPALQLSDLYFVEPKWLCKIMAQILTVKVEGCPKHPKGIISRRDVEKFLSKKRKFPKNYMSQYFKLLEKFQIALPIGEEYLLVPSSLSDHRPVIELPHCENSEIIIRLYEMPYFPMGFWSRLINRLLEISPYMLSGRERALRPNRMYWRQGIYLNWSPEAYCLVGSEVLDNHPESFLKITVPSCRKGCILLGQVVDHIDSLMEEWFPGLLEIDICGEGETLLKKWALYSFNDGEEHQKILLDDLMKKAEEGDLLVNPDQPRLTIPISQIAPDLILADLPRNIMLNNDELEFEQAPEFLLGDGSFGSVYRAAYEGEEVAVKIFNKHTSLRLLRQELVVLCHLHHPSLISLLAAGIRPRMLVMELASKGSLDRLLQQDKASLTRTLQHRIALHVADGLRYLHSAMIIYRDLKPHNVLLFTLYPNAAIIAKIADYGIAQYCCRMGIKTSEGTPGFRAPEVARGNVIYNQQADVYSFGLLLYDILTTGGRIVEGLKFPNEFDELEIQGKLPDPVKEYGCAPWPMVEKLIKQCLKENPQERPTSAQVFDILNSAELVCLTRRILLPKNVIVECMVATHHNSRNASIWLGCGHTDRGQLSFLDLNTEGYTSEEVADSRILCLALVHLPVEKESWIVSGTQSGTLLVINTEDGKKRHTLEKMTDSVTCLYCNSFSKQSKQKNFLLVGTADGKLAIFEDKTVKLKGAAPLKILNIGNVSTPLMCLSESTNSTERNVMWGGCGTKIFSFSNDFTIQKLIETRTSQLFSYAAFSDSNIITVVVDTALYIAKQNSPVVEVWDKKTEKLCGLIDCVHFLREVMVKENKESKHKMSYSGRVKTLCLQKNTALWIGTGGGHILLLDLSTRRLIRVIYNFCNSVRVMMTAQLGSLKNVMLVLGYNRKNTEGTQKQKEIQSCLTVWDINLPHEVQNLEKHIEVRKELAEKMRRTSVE
Sequence of Cytochrome P450 3A4 (P08684 whole entry): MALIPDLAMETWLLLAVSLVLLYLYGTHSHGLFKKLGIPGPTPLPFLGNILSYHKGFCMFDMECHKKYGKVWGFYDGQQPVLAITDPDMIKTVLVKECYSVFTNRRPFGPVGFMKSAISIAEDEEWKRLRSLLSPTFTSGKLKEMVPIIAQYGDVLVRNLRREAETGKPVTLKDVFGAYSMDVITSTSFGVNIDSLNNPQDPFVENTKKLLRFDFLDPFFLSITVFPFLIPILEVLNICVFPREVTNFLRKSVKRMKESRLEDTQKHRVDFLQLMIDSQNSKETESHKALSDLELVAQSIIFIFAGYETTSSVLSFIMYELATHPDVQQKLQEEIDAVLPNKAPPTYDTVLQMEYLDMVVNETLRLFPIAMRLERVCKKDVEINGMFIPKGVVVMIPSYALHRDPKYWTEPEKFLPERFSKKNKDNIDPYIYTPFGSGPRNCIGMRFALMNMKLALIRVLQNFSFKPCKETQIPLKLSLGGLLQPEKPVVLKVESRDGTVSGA
Sequence of Leucine-rich repeat serine/threonine-protein kinase 2 (Homo sapiens, UniProt Q5S007, G2019S) (Q5S007 whole entry G2019S): as the sequence (Q5S007 whole entry) above, with G2019S counted along it
Sequence of Leucine-rich repeat serine/threonine-protein kinase 2 (Homo sapiens), Q5S007 [G2019S] (Q5S007 whole entry G2019S): as the sequence (Q5S007 whole entry) above, with G2019S counted along it
Sequence of Testis-specific serine/threonine-protein kinase 2 (Q96PF2 whole entry): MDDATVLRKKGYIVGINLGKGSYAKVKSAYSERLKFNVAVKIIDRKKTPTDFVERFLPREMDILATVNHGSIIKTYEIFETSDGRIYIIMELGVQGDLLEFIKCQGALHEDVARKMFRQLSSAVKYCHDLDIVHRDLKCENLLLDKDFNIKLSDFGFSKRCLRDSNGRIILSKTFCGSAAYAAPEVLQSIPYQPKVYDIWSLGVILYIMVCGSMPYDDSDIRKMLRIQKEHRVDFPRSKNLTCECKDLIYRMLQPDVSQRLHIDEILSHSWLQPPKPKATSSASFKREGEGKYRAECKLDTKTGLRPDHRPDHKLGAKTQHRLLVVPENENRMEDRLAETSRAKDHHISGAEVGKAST
Sequence of Serine/threonine-protein kinase Chk2 (O96017 whole entry): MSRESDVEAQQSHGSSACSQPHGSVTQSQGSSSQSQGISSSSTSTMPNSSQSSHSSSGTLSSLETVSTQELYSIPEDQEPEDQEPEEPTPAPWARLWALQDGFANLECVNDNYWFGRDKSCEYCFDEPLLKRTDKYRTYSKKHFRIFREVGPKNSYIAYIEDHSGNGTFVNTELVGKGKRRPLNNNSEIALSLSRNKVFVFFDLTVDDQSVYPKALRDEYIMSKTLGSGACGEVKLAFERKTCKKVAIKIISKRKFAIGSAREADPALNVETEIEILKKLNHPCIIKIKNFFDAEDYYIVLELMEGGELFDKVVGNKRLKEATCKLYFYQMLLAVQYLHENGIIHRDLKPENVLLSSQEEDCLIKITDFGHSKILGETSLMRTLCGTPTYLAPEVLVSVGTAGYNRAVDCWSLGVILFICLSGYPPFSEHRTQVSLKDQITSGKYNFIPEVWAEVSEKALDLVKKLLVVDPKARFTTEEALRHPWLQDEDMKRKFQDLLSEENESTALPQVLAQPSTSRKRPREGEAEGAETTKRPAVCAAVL
Sequence of Testis-specific serine/threonine-protein kinase 1 (Homo sapiens) (Q9BXA7 whole entry): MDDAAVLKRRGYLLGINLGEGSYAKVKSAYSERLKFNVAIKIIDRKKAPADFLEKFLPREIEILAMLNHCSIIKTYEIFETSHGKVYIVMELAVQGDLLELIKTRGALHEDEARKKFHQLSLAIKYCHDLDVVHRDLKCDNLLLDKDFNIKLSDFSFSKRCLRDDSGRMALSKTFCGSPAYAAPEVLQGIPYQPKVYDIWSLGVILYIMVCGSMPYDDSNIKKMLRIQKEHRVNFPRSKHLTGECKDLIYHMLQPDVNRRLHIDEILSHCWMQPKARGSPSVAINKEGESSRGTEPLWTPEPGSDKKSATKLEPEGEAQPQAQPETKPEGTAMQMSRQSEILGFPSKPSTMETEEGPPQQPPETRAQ

IC50 [1]: 3 nM | inhibition [2]: > 80% | solubility kinetic at 24 h, 200 µM [3]: 180 µM (≈ 131 µg/mL) | clearance [4]: 2.8 mL/min/kg | IC50 (Cytochrome P450 3A4): > 5000 nM | IC50 [5]: 545 nM | IC50 [6]: 342 nM | IC50 [7]: 229 nM | IC50 [8]: 192 nM | IC50 [9]: 602 nM | IC50 [10]: 1480 nM | IC50 [11]: 1300 nM | IC50 [12]: 944 nM | Ratio IC50 (Homo sapiens [13]): 114 | Ratio IC50 (Homo sapiens [14]): 201 | Ratio IC50 (Homo sapiens [15]): 493 | Ratio IC50 (Homo sapiens [16]): 315 | Ratio IC50 (Homo sapiens [17]): 11.7 | clearance [18]: 8.8 mL/min/kg | Vd [19]: 0.66 L/kg | MRT [20]: 4.3 h | MRT [21]: 0.98 h | AUC [22]: 18.2 µM·h | inhibition [25]: > 80% | inhibition [26]: > 80% | inhibition [27]: > 80% | inhibition [28]: > 80% | inhibition [29]: > 80% | inhibition (Homo sapiens [31]): 80%
SMILES: CCc1cccc(CC)c1N1CCn2cc(-c3nc(Nc4ccc(N5CCC(C(=O)N6CC7(CN(C)C7)C6)CC5)cc4OC)nc4[nH]ccc34)cc2C1=O
Activity [23]: Non-Toxic | Activity (CAL-51): Active | Activity [24]: Non-Toxic | IC50 [30]: > 30000 nM
